Test results: patent US20070037799A1, “Fungicide ternary active ingredient combinations” (Bayer Cropscience Aktiengesellschaft, priority 2003, published 2007)

Each molecule was assayed on Erysiphe graminis f. sp. Tritici (assay: Erysiphe test (wheat)/curative). Details: curative, sprayed 48 hours after inoculation, application rate 50 g/ha of each active compound, evaluation 8 days after inoculation, 0% = control, 100% = no infection.
Type: in vivo, Erysiphe graminis f. sp. Tritici on wheat
Description: The efficacy here is determined in %. 0% denotes an efficacy which corresponds to that of the control, while an efficacy of 100% means that no infection is observed.
To produce a suitable preparation of active compound, 1 part by weight of active compound or active compound combination is mixed with the stated amounts of solvent and emulsifier, and the concentrate is diluted with water to the desired concentration.
To test for curative activity, young plants are dusted with spores of Erysiphe graminis f. sp. Tritici. 48 hours after the inoculation, the plants are sprayed with the preparation of active compound at the stated application rate.
The plants are placed in a greenhouse at a temperature of about 20° C. and a relative atmospheric humidity of about 80% to promote the development of mildew pustules.
Evaluation is carried out 8 days after the inoculation. 0% means an efficacy which corresponds to that of the control, whereas an efficacy of 100% means that no infection is observed.

| SMILES | Efficacy in % found (activity found) [%] |
| --- | --- |
| CC(C)(C)C(O)(CCc1ccc(Cl)cc1)Cn1cncn1 (stereo not drawn) [(III) tebucinazole, tebucinazole] | 22 |
| OC(Cc1ccccc1Cl)(Cn1nc[nH]c1=S)C1(Cl)CC1 (stereo not drawn) [(II) prothioconazole, prothioconazole] | 0 |
| CON=C(C1=NOCCO1)c1ccccc1Oc1ncnc(Oc2ccccc2Cl)c1F [(I) fluoxastrobin, 3-[1-[2-(4-<2-chlorophenoxy>-5-fluoropyrimid-6-yloxy)phenyl]-1-(methoximino)methyl]-5,6-dihydro-1,4,2-dioxazine] | 11 |
